Data as given in patent US6512000B1, “Aminocarbonyl-substituted benzimidazoles having tryptase-inhibitory activity” (Boehringer Ingelheim Pharma KG, priority 1999, dated 2003).
Where a name gives a salt, the structure may show the parent alone. One block for each compound: values may come before it.

Target: T1, rh beta tryptase (Homo sapiens, UniProt P20231)
T1 construct: purchased Promega
Assay: Tryptase inhibition test (cleavage of N-p-tosyl-Gly-Pro-Lys-para-nitroaniline, p-nitroaniline measured at 405 nm)
Assay type: biochemical
Conditions: pH 7.4, 37° C.; for % Inhibition (10 μM): inhibition of rh beta tryptase at 10 μM test substance, substrate N-p-tosyl-Gly-Pro-Lys-para-nitroaniline 0.6 mM, 5 minutes; for IC50: concentration at which 50% of the tryptase enzyme activity is inhibited, substrate 0.6 mM
Protocol: The compounds according to the invention are characterised by their tryptase-inhibiting activity. This ability to inhibit tryptase was investigated using the test described below.
The measurement is carried out in Tris HCl buffer (100 mM), which additionally contains calcium (5 mM) and heparin ([…]), at pH 7.4. The standard used is rh beta tryptase which may be obtained commercially from Promega, for example. The substrate used is N-p-tosyl-Gly-Pro-Lys-para-nitroaniline in a concentration of 0.6 mM. The substrate is digested with tryptase to form p-nitroaniline which can be measured at 405 nm. Usually, an incubation period of 5 minutes and an incubation temperature of 37° C. are chosen. The enzyme activity used is 0.91 U/ml. The measurements are carried out in an Autoanalyser (Cobas Bio) made by Hofmann LaRoche. The potential inhibitory substances are used in concentrations of 10 μM in the screening, the inhibition of the tryptase being given in percent. The IC50 is determined at over 70% inhibition (concentration at which 50% of the enzyme activity is inhibited). After 5 minutes' pre-incubation of the potential inhibitory substances, the substrate is added to start the reaction, the formation of p-nitroaniline being taken as a measurement of the enzyme activity after 5 minutes, after testing the linearity.
The data obtained after the above test has been carried out (% inhibition) are assembled in Table 25 for the compounds according to the invention. The IC50 values obtained for the compounds according to the invention can be found in Table 26.
Table 26 contains the IC50 binding values obtained for the compounds according to the invention. These were measured as described above.

T1 sequence (P20231 31-275): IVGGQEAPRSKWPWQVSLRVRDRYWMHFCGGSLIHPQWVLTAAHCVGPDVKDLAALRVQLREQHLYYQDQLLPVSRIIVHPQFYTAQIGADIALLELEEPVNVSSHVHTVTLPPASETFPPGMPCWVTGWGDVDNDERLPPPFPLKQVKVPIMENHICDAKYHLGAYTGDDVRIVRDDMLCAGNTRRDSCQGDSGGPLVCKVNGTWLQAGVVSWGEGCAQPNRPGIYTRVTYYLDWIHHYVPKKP

Compound: 2-[2-(4-amidinophenyl)ethyl]-1-(2 thiophenyl-methyl)-benzimidazol-5-yl-carboxylic acid-N-[4-(amino-methyl)-benzyl]-N-(3-pyridyl)-amide [Example 147]
- % Inhibition (10 μM): 51%

Compound: 2-[2-(4-amidinophenyl)ethyl]-1-(2-cyclohexylethyl)-benzimidazol-5-yl-carboxylic acid-N-[4-(amino-methyl)-benzyl]-N-(3-pyridyl)-amide [Example 137]
- % Inhibition (10 μM): 52%

Compound: 2-[2-(4-amidinophenyl)ethyl]-1-(3-di-n-butylaminopropyl)-benzimidazol-5-yl-carboxylic acid-N-[4-(amino-methyl)-benzyl]-N-(2-pyridyl)-amide [Example 119]
- % Inhibition (10 μM): 57%

Compound: 2-[2-(4-amidinophenyl)ethyl]-1-(3-di-n-butylaminopropyl)-benzimidazol-5-yl-carboxylic acid-N-[4-(amino-methyl)-benzyl]-N-(3-pyridyl)-amide [Example 135]
- % Inhibition (10 μM): 64%

Compound: 2-[2-(4-amidinophenyl)ethyl]-1-(3-ethoxypropyl)-benzimidazol-5-yl-carboxylic acid-N-(2-aminoethyl)-N-(3-pyridyl)-amide [Example 326]
- IC50: 288 nM
- % Inhibition (10 μM): 51%

Compound: 2-[2-(4-amidinophenyl)ethyl]-1-(3-ethoxypropyl)-benzimidazol-5-yl-carboxylic acid-N-[4-(amino-methyl)-benzyl]-N-(2-pyridyl)-amide [Example 118]
- IC50: 304 nM
- % Inhibition (10 μM): 71%

Compound: 2-[2-(4-amidinophenyl)ethyl]-1-(3-ethoxypropyl)-benzimidazol-5-yl-carboxylic acid-N-[4-(amino-methyl)-benzyl]-N-(3-pyridyl)-amide [Example 134]
- IC50: 231 nM
- % Inhibition (10 μM): 69%

Compound: 2-[2-(4-amidinophenyl)ethyl]-1-(tetrahydrofuran-2-yl-methyl)-benzimidazol-5-yl-carboxylic acid-N-(2-aminoethyl)-N-(2-pyridyl)-amide [Example 322]
- % Inhibition (10 μM): 51%

Compound: 2-[2-(4-amidinophenyl)ethyl]-1-(tetrahydrofuran-2-yl-methyl)-benzimidazol-5-yl-carboxylic acid-N-[4-(amino-methyl)-benzyl]-N-(2-pyridyl)-amide [Example 130]
- % Inhibition (10 μM): 77%

Compound: 2-[2-(4-amidinophenyl)ethyl]-1-(tetrahydrofuran-2-yl-methyl)-benzimidazol-5-yl-carboxylic acid-N-[4-(amino-methyl)-benzyl]-N-(3-pyridyl)-amide [Example 146]
- % Inhibition (10 μM): 65%

Compound: 2-[2-(4-amidinophenyl)ethyl]-1-[2-(4-chlorophenyl)ethyl]-benzimidazol-5-yl-carboxylic acid-N-[4-(amino-methyl)-benzyl]-N-(2-pyridyl)-amide [Example 124]
- % Inhibition (10 μM): 55%

Compound: 2-[2-(4-amidinophenyl)ethyl]-1-[3-(benzylcarbonylamino)-propyl]-benzimidazol-5-yl-carboxylic acid-N-(2-aminoethyl)-N-(2-pyridyl)-amide [Example 312]
- % Inhibition (10 μM): 55%

Compound: 2-[2-(4-amidinophenyl)ethyl]-1-[3-(benzylcarbonylamino)-propyl]-benzimidazol-5-yl-carboxylic acid-N-[4-(amino-methyl)-benzyl]-N-(2-pyridyl)-amide [Example 120]
- % Inhibition (10 μM): 74%

Compound: 2-[2-(4-amidinophenyl)ethyl]-1-[3-(benzylcarbonylamino)-propyl]-benzimidazol-5-yl-carboxylic acid-N-[4-(amino-methyl)-benzyl]-N-(3-pyridyl)-amide [Example 136]
- % Inhibition (10 μM): 74%

Compound: 2-[2-(4-amidinophenyl)ethyl]-1-[3-(morpholin-4-yl)-propyl]-benzimidazol-5-yl-carboxylic acid-N-[4-(amino-methyl)-benzyl]-N-(2-fluorobenzyl)-amide [Example 225]
- % Inhibition (10 μM): 58%

Compound: 2-[2-(4-amidinophenyl)ethyl]-1-[3-(morpholin-4-yl)-propyl]-benzimidazol-5-yl-carboxylic acid-N-[4-(amino-methyl)-benzyl]-N-(3-pyridyl)-amide [Example 145]
- % Inhibition (10 μM): 73%

Compound: 2-[2-(4-amidinophenyl)ethyl]-1-cyclopropylmethyl-benzimidazol-5-yl-carboxylic acid-N-[4-(amino-methyl)-benzyl]-N-(2-pyridyl)-amide [Example 122]
- IC50: 515 nM
- % Inhibition (10 μM): 70%

Compound: 2-[2-(4-amidinophenyl)ethyl]-1-cyclopropylmethyl-benzimidazol-5-yl-carboxylic acid-N-[4-(amino-methyl)-benzyl]-N-(3-pyridyl)-amide [Example 138]
- IC50: 431 nM
- % Inhibition (10 μM): 72%

Compound: CN(Cc1cccnc1)C(=O)c1ccc2c(c1)nc(CCc1ccc(C(=N)N)cc1)n2C [Example 1, 2-[2-(4-Amidinophenyl)ethyl]-1-methyl-benzimidazol-5-yl-carboxylic Acid-N-(pyridin-3-yl-methyl)-N-methyl-amide-hydrochloride]
- IC50: 887 nM

Compound: CN(C)CCN(C)C(=O)c1ccc2c(c1)nc(CCc1ccc(C(=N)N)cc1)n2C [Example 3, 2-[2-(4-Amidinophenyl)-ethyl]1l-methyl-benzimidazol-5-yl-carboxylic Acid-N-[2-(N,N-dimethylamino)-ethyl]-N-methyl-amide-dihydrochlonide]
- IC50: 660 nM

Compound: CN(Cc1ccc(C(=N)N)cc1)C(=O)c1ccc2c(c1)nc(CCc1ccc(C(=N)N)cc1)n2C [Example 4, 2-[2-(4-Amidinophenyl)-ethyl]-1-methyl-benzimidazol-5-yl-carboxylic Acid-N-(4-amidino-benzyl)-N-methyl-amide-trihydrochloride]
- IC50: 81 nM

Compound: CCOC(=O)CN(Cc1ccc(C(=N)N)cc1)C(=O)c1ccc2c(c1)nc(CCc1ccc(C(=N)N)cc1)n2C [Example 5, 2-[2-(4-Amidinophenyl)-ethyl]-1-methyl-benzimidazol-5-yl-carboxylic Acid-N-(4-amidino-benzyl)-N-ethoxycarbonylmethyl-amide-dihydrochloride]
- IC50: 245 nM

The next lines start with the values.

- % Inhibition (10 μM): 52%
Compound: 2-[2-(4-amidinophenyl)ethyl]-1-(2-cyclohexylethyl)-benzimidazol-5-yl-carboxylic acid-N-[4-(amino-methyl)-benzyl]-N-(2-pyridyl)-amide [Example 121]

- % Inhibition (10 μM): 60%
Compound: 2-[2-(4-amidinophenyl)ethyl]-1-(2-phenylethyl)-benzimidazol-5-yl-carboxylic acid-N-[4-(amino-methyl)-benzyl]-N-(2-pyridyl)-amide [Example 123]

- % Inhibition (10 μM): 76%
Compound: 2-[2-(4-amidinophenyl)ethyl]-1-(2-phenylethyl)-benzimidazol-5-yl-carboxylic acid-N-[4-(amino-methyl)-benzyl]-N-(3-pyridyl)-amide [Example 139]

- % Inhibition (10 μM): 59%
Compound: 2-[2-(4-amidinophenyl)ethyl]-1-(2-thiophenyl-methyl)-benzimidazol-5-yl-carboxylic acid-N-(2-aminoethyl)-N-(2-pyridyl)-amide [Example 323]

- % Inhibition (10 μM): 63%
Compound: 2-[2-(4-amidinophenyl)ethyl]-1-(4-methylbenzyl)-benzimidazol-5-yl-carboxylic acid-N-[4-(amino-methyl)-benzyl]-N-(2-pyridyl)-amide [Example 125]

- % Inhibition (10 μM): 63%
Compound: 2-[2-(4-amidinophenyl)ethyl]-1-[2-(4-chlorophenyl)ethyl]-benzimidazol-5-yl-carboxylic acid-N-[4-(amino-methyl)-benzyl]-N-(3-pyridyl)-amide [Example 140]

- % Inhibition (10 μM): 63%
Compound: 2-[2-(4-amidinophenyl)ethyl]-1-[3-(morpholin-4-yl)-propyl]-benzimidazol-5-yl-carboxylic acid-N-[4-(amino-methyl)-benzyl]-N-(2-pyridyl)-amide [Example 129]

- IC50: 771 nM
- % Inhibition (10 μM): 61%
Compound: 2-[2-(4-amidinophenyl)ethyl]-1-cyclopropylmethyl-benzimidazol-5-yl-carboxylic acid-N-(2-aminoethyl)-N-(2-pyridyl)-amide [Example 314]

- IC50: 503 nM
- % Inhibition (10 μM): 54%
Compound: 2-[2-(4-amidinophenyl)ethyl]-1-cyclopropylmethyl-benzimidazol-5-yl-carboxylic acid-N-(2-aminoethyl)-N-(3-pyridyl)-amide [Example 330]

- % Inhibition (10 μM): 51%
Compound: 2-[2-(4-amidinophenyl)ethyl]-1-{3-[4-(2-methylphenyl)-piperazin-1-yl]-propyl}-benzimidazol-5-yl-carboxylic acid-N-[4-(amino-methyl)-benzyl]-N-(2-pyridyl)-amide [Example 128]

- % Inhibition (10 μM): 54%
Compound: 2-[2-(4-amidinophenyl)ethyl]-1-{3-[4-(2-methylphenyl)-piperazin-1-yl]-propyl}-benzimidazol-5-yl-carboxylic acid-N-[4-(amino-methyl)-benzyl]-N-(3-pyridyl)-amide [Example 144]
